According to US6482948B1, “Thienopyrimidine compounds and salts thereof and process for the preparation of the same” (Nippon Soda Co., Ltd., priority 1999, dated 2002):

Assays:
[1] = target: PDE 1 (Ca-calmodulin activatable PDE); assay: Phosphodiesterase inhibiting activity, PDE 1; type: biochemical; conditions: isozyme from dog heart; 1 μM [3H]-cAMP or [3H]-cGMP; read-out: Inhibition of PDE Activity: IC50 PDE 1
Method: (§1) Pharmacological Test Example 1: Phosphodiesterase Inhibiting Activity
(§2) Cyclic nucleotide phosphodiesterases from human platelets and from the heart and kidney of a dog were eluted by the concentration gradient method with 70 to 1000 mM of sodium acetate on DEAE-cellulose column chromatography (Whatman Co. Ltd., DE-52, φ3.2×13 cm) according to the method of Thompson and others (Thompson W. J., et al., Advances in Cyclic Nucleotide Research: 10, 69-92, 1979), and separated into isozymes. PDE 5 (cGMP specific PDE) and PDE 3 (cGMP inhibitable cAMP PDE) were separated from the platelets, PDE 1 (Ca-calmodulin activatable PDE) from the heart, and PDE 4 (cGMP non-inhibitable cAMP PDE) from the kidney. The method of Thompson, et al was partially modified to measure phosphodiesterase activities: 1 μM of [3H]-cAMP or [3H]-cGMP was decomposed with phosphodiesterase. The produced 5′-AMP or 5′-GMP was decomposed to adenosine or guanosine with a snake venom (Sigma V7000). The reaction solution was added to anion exchange resin (Bio-Rad Co. Ltd., AG1-X8). Non-adsorbed adenosine or guanosine was counted by a liquid scintillation counter. A concentration causing 50% inhibition of the enzyme activity (IC50) was calculated from concentration inhibition curves.

PDE 2 = target: T1, PDE 2 (Homo sapiens, UniProt O00408); assay: Phosphodiesterase inhibiting activity, PDE 2; type: biochemical; conditions: 1 μM [3H]-cAMP or [3H]-cGMP; source of isozyme not given; read-out: Inhibition of PDE Activity: IC50 PDE 2
T1 construct: eluted by the concentration gradient method with 70 to 1000 mM of sodium acetate on DEAE-cellulose column chromatography; from tissue
Method: [Worded in the source for another target; this target is reported under the same test.] as §1, §2

[2] = target: T2, PDE 3 (cGMP inhibitable cAMP PDE) (Homo sapiens, UniProt Q14432); assay: Phosphodiesterase inhibiting activity, PDE 3; type: biochemical; conditions: isozyme from human platelets; 1 μM [3H]-cAMP or [3H]-cGMP; read-out: Inhibition of PDE Activity: IC50 PDE 3
T2 construct: from tissue; host or cells: human platelets
Method: as §1, §2

[3] = target: PDE 4 (cGMP non-inhibitable cAMP PDE); assay: Phosphodiesterase inhibiting activity, PDE 4; type: biochemical; conditions: isozyme from dog kidney; 1 μM [3H]-cAMP or [3H]-cGMP; read-out: Inhibition of PDE Activity: IC50 PDE 4
Method: as §1, §2

[4] = target: T3, PDE 5 (cGMP specific PDE) (Homo sapiens, UniProt O76074); assay: Phosphodiesterase inhibiting activity, PDE 5; type: biochemical; conditions: isozyme from human platelets; 1 μM [3H]-cAMP or [3H]-cGMP; read-out: Inhibition of PDE Activity: IC50 PDE 5
T3 construct: from tissue; host or cells: human platelets
Method: as §1, §2

thoracic aortas = assay: Vasodilating activity, phenylephrine-contracted thoracic aorta ring preparations (Magnus method); set-up: species or system Sprague-Dawley male rats; conditions: rat thoracic aorta ring preparations contracted with 1 μM phenylephrine, 37° C., drug added cumulatively
Method: Pharmacological Test Example 2: Vasodilating Activity
A vasodilating activity was assessed according to the method of Ken-ichi Hirata and Mitsuhiro Yokoyama (Arteriosclerosis and Hyperlipemia Research Strategies, published by Shujunsha (Japan), pages 275-277, 1996): The thoracic aortas were extracted from Sprague-Dawley male rats (weighing 180 to 360 g). After unnecessary connective tissues were removed, the aortas were cut to 5mm-long pieces to make ring strip preparations, and assessed by the Magnus method (37° C.). A nutrient solution used was a Krebs-Henseleit solution aerated with 5% carbon dioxide gas and 95% oxygen gas. Specimens were equilibrated for about 60 minutes, and then contracted by adding 1 μM of phenylephrine. 1 μM of acetylcholine was added at the second phenylepherine-induced contraction in order to confirm an endothelial cell dependent relaxation response. At the third phenylepherine-induced contraction, a drug to test was added cumulatively, and the relaxation action was observed. Drugs to test were all dissolved in DMSO to use for the tests. The tested drugs were assessed by 50% relaxation rates (EC50) obtained from vasodilation rates to respective concentrations (the maximum relaxation was measured by adding 100 μM of papaverine).

T2 sequence (Q14432 whole entry): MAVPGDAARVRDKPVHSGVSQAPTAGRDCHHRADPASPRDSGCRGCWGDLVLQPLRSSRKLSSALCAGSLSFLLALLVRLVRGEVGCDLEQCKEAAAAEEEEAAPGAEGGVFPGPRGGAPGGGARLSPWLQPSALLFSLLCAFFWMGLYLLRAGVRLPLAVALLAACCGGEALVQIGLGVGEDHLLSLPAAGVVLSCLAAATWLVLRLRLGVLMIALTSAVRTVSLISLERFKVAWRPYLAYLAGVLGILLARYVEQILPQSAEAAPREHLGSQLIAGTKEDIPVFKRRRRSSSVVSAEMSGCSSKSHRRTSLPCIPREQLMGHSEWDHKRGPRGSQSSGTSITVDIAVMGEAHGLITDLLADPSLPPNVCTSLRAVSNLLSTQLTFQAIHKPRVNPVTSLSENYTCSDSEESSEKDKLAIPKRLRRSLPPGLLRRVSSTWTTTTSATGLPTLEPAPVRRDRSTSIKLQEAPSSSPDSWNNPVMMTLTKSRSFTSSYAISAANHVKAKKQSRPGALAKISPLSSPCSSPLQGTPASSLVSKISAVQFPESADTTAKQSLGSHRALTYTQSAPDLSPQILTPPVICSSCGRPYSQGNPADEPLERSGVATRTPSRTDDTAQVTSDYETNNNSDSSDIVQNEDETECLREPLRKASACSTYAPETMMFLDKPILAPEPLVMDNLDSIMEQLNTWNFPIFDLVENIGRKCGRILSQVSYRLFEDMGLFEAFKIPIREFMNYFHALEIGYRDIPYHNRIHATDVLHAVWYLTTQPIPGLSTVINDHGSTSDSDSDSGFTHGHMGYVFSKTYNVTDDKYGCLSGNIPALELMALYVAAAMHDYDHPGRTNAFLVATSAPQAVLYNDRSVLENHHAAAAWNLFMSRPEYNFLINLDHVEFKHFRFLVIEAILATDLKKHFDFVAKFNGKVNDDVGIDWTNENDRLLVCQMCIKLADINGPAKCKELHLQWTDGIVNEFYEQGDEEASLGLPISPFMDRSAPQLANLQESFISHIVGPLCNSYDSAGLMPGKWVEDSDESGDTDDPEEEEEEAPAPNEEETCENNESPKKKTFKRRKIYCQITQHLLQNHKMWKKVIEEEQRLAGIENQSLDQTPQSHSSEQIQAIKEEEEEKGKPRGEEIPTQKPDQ
T1 sequence (O00408 whole entry): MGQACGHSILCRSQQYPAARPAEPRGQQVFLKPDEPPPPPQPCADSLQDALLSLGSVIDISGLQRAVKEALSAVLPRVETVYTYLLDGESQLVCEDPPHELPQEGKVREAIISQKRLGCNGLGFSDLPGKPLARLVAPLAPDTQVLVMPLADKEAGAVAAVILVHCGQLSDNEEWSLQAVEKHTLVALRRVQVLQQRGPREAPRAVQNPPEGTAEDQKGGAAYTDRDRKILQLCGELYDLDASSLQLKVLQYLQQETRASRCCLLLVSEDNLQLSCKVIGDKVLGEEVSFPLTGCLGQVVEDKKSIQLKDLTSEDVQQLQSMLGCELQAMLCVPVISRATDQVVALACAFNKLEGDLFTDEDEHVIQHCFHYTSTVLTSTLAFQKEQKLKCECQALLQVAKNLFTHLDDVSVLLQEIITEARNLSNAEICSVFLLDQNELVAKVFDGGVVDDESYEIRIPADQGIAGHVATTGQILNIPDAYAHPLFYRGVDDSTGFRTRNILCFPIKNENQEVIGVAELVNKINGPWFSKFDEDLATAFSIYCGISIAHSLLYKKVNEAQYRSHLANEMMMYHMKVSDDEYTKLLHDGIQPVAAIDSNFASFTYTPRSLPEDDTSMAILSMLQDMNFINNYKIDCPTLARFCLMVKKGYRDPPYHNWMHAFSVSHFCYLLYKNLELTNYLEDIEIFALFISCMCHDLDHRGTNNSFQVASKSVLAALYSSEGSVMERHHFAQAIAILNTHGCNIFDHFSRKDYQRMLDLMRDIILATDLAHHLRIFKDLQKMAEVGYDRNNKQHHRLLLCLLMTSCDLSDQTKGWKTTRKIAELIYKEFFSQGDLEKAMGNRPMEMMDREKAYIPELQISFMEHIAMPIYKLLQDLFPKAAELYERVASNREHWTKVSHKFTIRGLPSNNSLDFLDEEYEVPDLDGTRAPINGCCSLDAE

Row | Compound | IC50 [1] | IC50 (PDE 2) | IC50 [2] | IC50 [3] | IC50 [4] | EC50 (thoracic aortas) | melting point
1 | COc1ccc(CNc2nc(-c3cccnc3)nc3sc4c(c23)CCN(C(C)=O)C4)cc1Cl [1-9, 5,6,7,8-tetrahydro-4-[(3-chloro-4-methoxy)benzylamino]-7-acetyl-2-(3-pyridyl)pyrido[4′,3′:4,5]thieno[2,3-d]pyrimidine] | – | – | – | – | – | 6.3 nM | 226 to 227 °C
2 | CCOC(=O)N1CCc2c(sc3nc(-c4cccnc4)nc(NCc4ccc(OC)c(Cl)c4)c23)C1 [1-15, 5,6,7,8-tetrahydro-4-[(3-chloro-4-methoxy)benzylamino]-7-ethoxycarbonyl-2-(3-pyridyl)pyrido[4′,3′:4,5]thieno[2,3-d]pyrimidine] | – | – | – | – | – | 2.1 nM | –
3 | COc1ccc(CNc2nc(C(=O)Nc3ccccc3Cl)nc3sc4c(c23)CCN(C)C4)cc1Cl [1-60] | > 10000 nM | > 10000 nM | > 10000 nM | 3600 nM | 14 nM | 7.5 nM | –
4 | COc1ccc(CNc2nc(C(=O)Nc3ccc(Cl)cc3)nc3sc4c(c23)CCN(C)C4)cc1Cl [1-61, 5,6,7,8-tetrahydro-4-[(3-chloro-4-methoxy)benzylamino]-7-methylpyrido[4′,3′:4,5]thieno[2,3-d]pyrimidine-2-N-(4-chlorophenyl)carboxamide] | > 10000 nM | > 10000 nM | > 10000 nM | > 10000 nM | 0.92 nM | 8.7 nM | –
5 | COc1ccc(NC(=O)c2nc(NCc3ccc(OC)c(Cl)c3)c3c4c(sc3n2)CN(C)CC4)cc1 [1-62] | > 10000 nM | > 10000 nM | > 10000 nM | > 10000 nM | 2.4 nM | 7.2 nM | –
6 | COc1ccc(CNc2nc(C(=O)NC3CCCCC3)nc3sc4c(c23)CCN(C)C4)cc1Cl [1-63] | > 10000 nM | > 10000 nM | > 10000 nM | > 10000 nM | 0.38 nM | 4.8 nM | –
7 | COC(=O)c1nc(NCc2ccc(OC)c(Cl)c2)c2c3c(sc2n1)CN(Cc1ccccc1)CC3 [1-65] | > 10000 nM | > 10000 nM | > 10000 nM | > 10000 nM | 91 nM | 260 nM | 168 to 170 °C
8 | COc1ccc(CNc2nc(C(=O)Nc3ccccc3)nc3sc4c(c23)CCN(Cc2ccccc2)C4)cc1Cl [1-67] | > 10000 nM | > 10000 nM | > 10000 nM | > 10000 nM | 0.39 nM | 82 nM | –
9 | CCOC(=O)c1nc(NCc2ccc(OC)c(Cl)c2)c2c3c(sc2n1)CN(C)CC3 [1-69, ethyl 5,6,7,8-tetrahydro-4-[(3-chloro-4-methoxy)benzylamino]-7-methylpyrido[4′,3′:4,5]thieno[2,3-d]pyrimidine-2-carboxylate] | > 10000 nM | > 10000 nM | > 10000 nM | > 10000 nM | 31 nM | 18 nM | –
10 | COc1ccc(CNc2nc(C(=O)Nc3ccccc3)nc3sc4c(c23)CCN(C)C4)cc1Cl [1-72] | > 10000 nM | > 10000 nM | > 10000 nM | > 10000 nM | 1.8 nM | 7.4 nM | –
11 | COc1ccc(CNc2nc(C(=O)Nc3ccccc3)nc3sc4c(c23)CCN(C(C)C)C4)cc1Cl [1-75] | > 10000 nM | > 10000 nM | > 10000 nM | 8400 nM | 1.4 nM | 9.3 nM | –
12 | COc1ccc(CNc2nc(C(=O)NC3CC3)nc3sc4c(c23)CCN(C(C)C)C4)cc1Cl [1-76] | > 10000 nM | > 10000 nM | > 10000 nM | > 10000 nM | 56 nM | 26 nM | 112 to 114 °C
13 | COC(=O)c1ccc(NC(=O)c2nc(NCc3ccc(OC)c(Cl)c3)c3c4c(sc3n2)CN(C)CC4)cc1 [1-80] | > 10000 nM | 3300 nM | > 10000 nM | 4100 nM | 53 nM | 25 nM | –
14 | CCOC(=O)Cc1nc(NCc2ccc(OC)c(Cl)c2)c2c3c(sc2n1)C(=O)N(C(C)C)CC3 [2-10] | > 10000 nM | > 10000 nM | 7400 nM | 8000 nM | 39 nM | 18 nM | –
15 | COc1ccc(CNc2nc(C(=O)Nc3ccccc3)nc3sc4c(c23)CCCC4)cc1Cl [3-2] | > 10000 nM | > 10000 nM | > 10000 nM | > 10000 nM | 0.39 nM | – | 210 to 211 °C

More lines, now with the values ahead:

Row | IC50 [1] | IC50 (PDE 2) | IC50 [2] | IC50 [3] | IC50 [4] | EC50 (thoracic aortas) | melting point | Compound
16 | > 10000 nM | 3900 nM | > 10000 nM | > 10000 nM | 0.92 nM | 86 nM | – | COc1ccc(CNc2nc(-c3ccc4c(c3)OCO4)nc3sc4c(c23)CCN(Cc2ccccc2)C4)cc1Cl [1-1]
17 | > 10000 nM | 2700 nM | 6100 nM | 2000 nM | 2.6 nM | 19 nM | – | COc1ccc(CNc2nc(-c3cccnc3)nc3sc4c(c23)CCN(Cc2ccccc2)C4)cc1Cl [1-4]
18 | > 10000 nM | > 10000 nM | > 10000 nM | 2500 nM | 0.54 nM | 8.1 nM | 218 to 220 °C | CCOC(=O)N1CCc2c(sc3nc(-c4ccncc4)nc(NCc4ccc(OC)c(Cl)c4)c23)C1 [1-5]
19 | 5500 nM | > 10000 nM | > 10000 nM | 3600 nM | 50 nM | 16 nM | 90 to 92 °C | COc1ccc(CNc2nc(-c3ccco3)nc3sc4c(c23)CCN(C)C4)cc1Cl [1-6]
20 | > 10000 nM | 2000 nM | 5400 nM | 3700 nM | 2.4 nM | 9.5 nM | 118 to 120 °C | COc1ccc(CNc2nc(-c3ccncc3)nc3sc4c(c23)CCN(C)C4)cc1Cl [1-7]
21 | > 10000 nM | > 10000 nM | ≥ 10000 nM | > 10000 nM | 33 nM | 19 nM | 155 to 157 °C | COC(=O)CNC(=O)c1nc(NCc2ccc(OC)c(Cl)c2)c2c3c(sc2n1)CN(C(C)C)CC3 [1-54]
22 | > 10000 nM | > 10000 nM | > 10000 nM | 2000 nM | 62 nM | 180 nM | – | CCOc1ccccc1NC(=O)c1nc(NCc2ccc(OC)c(Cl)c2)c2c3c(sc2n1)CN(C(C)C)CC3 [1-55]
23 | > 10000 nM | > 10000 nM | > 10000 nM | > 10000 nM | 0.55 nM | 2.7 nM | – | COc1ccc(CNc2nc(C(=O)Nc3nccs3)nc3sc4c(c23)CCN(C)C4)cc1Cl [1-57]
24 | > 10000 nM | > 10000 nM | > 10000 nM | > 10000 nM | 2.1 nM | 5.1 nM | – | COc1ccc(CNc2nc(C(=O)Nc3ccncc3)nc3sc4c(c23)CCN(C)C4)cc1Cl [1-58]
25 | > 10000 nM | 6100 nM | 7600 nM | 3400 nM | 78 nM | 7.6 nM | – | COc1ccc(CNc2nc(C(=O)Nc3ccc(-n4ccnc4)cc3)nc3sc4c(c23)CCN(C)C4)cc1Cl [1-59]
26 | 670 nM | > 10000 nM | > 10000 nM | 5100 nM | 16 nM | 18 nM | – | COc1ccc(CNc2nc(C(=O)NCc3ccccc3)nc3sc4c(c23)CCN(C)C4)cc1Cl [1-79]
27 | 1300 nM | 3100 nM | > 10000 nM | > 10000 nM | 75 nM | – | – | COc1ccc(CNc2nc(C(N)=O)nc3sc4c(c23)CCN(C)C4)cc1Cl [1-83]
